# Data from the Deep4Chem optical property database.
# Assay: photoluminescence quantum yield (fraction); solvent given as SMILES
smiles,measurement,setting,value
COc1cc2c(cc1/C=C/C(=C(C#N)C#N)c1ccccc1)c1ccccc1n2C,photoluminescence quantum yield,in C1CCOC1,0.008
same,photoluminescence quantum yield,in CC#N,0.014
same,photoluminescence quantum yield,in CCO,0.012
same,photoluminescence quantum yield,in CCOC(C)=O,0.009
same,photoluminescence quantum yield,in CN(C)C=O,0.022
same,photoluminescence quantum yield,in CO,0.012
same,photoluminescence quantum yield,in CS(C)=O,0.033
same,photoluminescence quantum yield,in Cc1ccccc1,0.007
same,photoluminescence quantum yield,in ClC(Cl)Cl,0.018
same,photoluminescence quantum yield,in ClCCl,0.022
Cc1ccc(-c2c3nc(c(-c4ccc(C)cc4)c4ccc([nH]4)c(-c4ccc(OC(=O)C(C)c5ccccc5)cc4)c4nc(c(-c5ccc(C)cc5)c5ccc2[nH]5)C=C4)C=C3)cc1 (centres undefined),photoluminescence quantum yield,in ClCCl,0.123
COC(=O)C[C@H](Cc1c[nH]c2ccccc12)NC(=O)[C@H](CC(=O)N[C@@H](CC1=CCc2ccccc21)C(=O)OC)NC(=O)[C@H](Cc1c[nH]c2ccccc12)NC(=O)OC(C)(C)C,photoluminescence quantum yield,in CC#N,0.26
same,photoluminescence quantum yield,in CCOC(C)=O,0.22
same,photoluminescence quantum yield,in CO,0.1
FC(F)(F)c1ccc(-c2nnc(-c3cc(-c4nnc(-c5ccc(C(F)(F)F)cc5)o4)c(-n4c5ccccc5c5ccccc54)cc3-n3c4ccccc4c4ccccc43)o2)cc1,photoluminescence quantum yield,in Cc1ccccc1,0.095
same,photoluminescence quantum yield,in O=P(c1ccccc1)(c1ccccc1)c1ccccc1Oc1ccccc1P(=O)(c1ccccc1)c1ccccc1,0.698
CC(C)(C)c1ccc(C(C)(C)C)c(N2C(=O)c3cccc4c(-c5ccc(-c6ccc([N+](=O)[O-])cc6)s5)ccc(c34)C2=O)c1,photoluminescence quantum yield,in CO,0.03
same,photoluminescence quantum yield,in CS(C)=O,0.17
same,photoluminescence quantum yield,in Cc1ccccc1,0.07
CCN1C(=CC2=C([O-])C(=CC3=[N+](CC)c4ccccc4C3(C)C)C2=O)C(C)(C)c2ccccc21,photoluminescence quantum yield,in CC(C)O,0.09
Cc1ccc2c(c1)C1(c3ccccc3-c3ccccc31)c1cc(C)ccc1N2c1ccc(-c2ncccn2)cc1,photoluminescence quantum yield,in O=P(c1ccccc1)(c1ccccc1)c1ccc2oc3ccc(P(=O)(c4ccccc4)c4ccccc4)cc3c2c1,0.91
COCCOCCOCCOc1ccc(/C=C/C2=[N+]3C(=C(c4cc(OC)cc(OC)c4)c4c(C)c(I)c(/C=C/c5ccc(OCCOCCOCCOC)cc5)n4[B-]3(F)F)C(C)=C2I)cc1,photoluminescence quantum yield,in C1CCOC1,0.19
same,photoluminescence quantum yield,in CS(C)=O,0.17
same,photoluminescence quantum yield,in ClCCl,0.24
C[Si]1(C)c2ccc(C#Cc3ccccc3)cc2C=Cc2cc(C#Cc3ccccc3)ccc21,photoluminescence quantum yield,in ClCCl,0.36
CC1=[N+]2C(=C(c3ccc(N4CCOCC4)cc3)c3ccc(C)n3[B-]2(F)F)C=C1,photoluminescence quantum yield,in C1CCCCC1,0.35
same,photoluminescence quantum yield,in CC(=O)C(C)(C)C,0.002
same,photoluminescence quantum yield,in CC(C)=O,0.002
same,photoluminescence quantum yield,in CCCCCC,0.388
same,photoluminescence quantum yield,in CCOC(C)=O,0.008
same,photoluminescence quantum yield,in CO,0.005
same,photoluminescence quantum yield,in Cc1ccccc1,0.32
same,photoluminescence quantum yield,in ClC(Cl)Cl,0.11
COc1ccc2nc(N)n[n+]([O-])c2c1,photoluminescence quantum yield,in CC#N,0.472
same,photoluminescence quantum yield,in O,0.0868
F[B-]1(F)OC(c2ccccc2)=Cc2c3ccccc3cc[n+]21,photoluminescence quantum yield,in ClC(Cl)Cl,0.046
COc1ccccc1C1=[N+]2C(=C(c3ccccc3)c3c4ccccc4c(-c4ccccc4OC)n3[B-]2(F)F)c2ccccc21,photoluminescence quantum yield,in ClCCl,0.91
CN(C)c1ccc2nc(/C=C/c3ccccc3)c(=O)oc2c1,photoluminescence quantum yield,in C1CCCCC1,0.77
same,photoluminescence quantum yield,in C1COCCO1,0.79
same,photoluminescence quantum yield,in CC#N,0.54
same,photoluminescence quantum yield,in CC(C)=O,0.71
same,photoluminescence quantum yield,in CCCCCCC,0.74
same,photoluminescence quantum yield,in CCO,0.55
same,photoluminescence quantum yield,in CCOC(C)=O,0.75
same,photoluminescence quantum yield,in CN(C)C=O,0.66
same,photoluminescence quantum yield,in CS(C)=O,0.61
same,photoluminescence quantum yield,in Cc1ccccc1,0.77
same,photoluminescence quantum yield,in ClC(Cl)Cl,0.81
same,photoluminescence quantum yield,in ClCCl,0.81
CN(C)c1ccc(C2=Nc3sc4cc(Cl)ccc4[n+]3[B-](F)(F)O2)cc1,photoluminescence quantum yield,in C1CCOC1,0.74
same,photoluminescence quantum yield,in CC#N,0.12
same,photoluminescence quantum yield,in CC(C)=O,0.21
same,photoluminescence quantum yield,in Cc1ccccc1,0.91
same,photoluminescence quantum yield,in ClCCl,0.78
CCCCCCCCCCCn1cccc1C1=[N+]2C(=Cc3c(C)cc(C)n3[B-]2(F)F)c2ccccc21,photoluminescence quantum yield,in C1CCOC1,0.98
same,photoluminescence quantum yield,in CC#N,0.99
same,photoluminescence quantum yield,in CCCCCC,0.99
same,photoluminescence quantum yield,in CO,0.96
same,photoluminescence quantum yield,in Cc1ccccc1,0.99
same,photoluminescence quantum yield,in ClCCl,0.99
CCCCCCOc1ccc(C#Cc2ccc(-c3ccc(-c4ccc(C#Cc5ccc(OCCCCCC)c(OCCCCCC)c5)s4)c4nsnc34)s2)cc1OCCCCCC,photoluminescence quantum yield,in C1CCCCC1,0.54
same,photoluminescence quantum yield,in CCOC(C)=O,0.46
same,photoluminescence quantum yield,in CN(C)C=O,0.24
same,photoluminescence quantum yield,in COc1ccccc1,0.48
same,photoluminescence quantum yield,in Cc1ccccc1,0.55
same,photoluminescence quantum yield,in ClC(Cl)Cl,0.43
same,photoluminescence quantum yield,in ClCCCl,0.34
same,photoluminescence quantum yield,in ClCCl,0.35
Cc1ccc2ccccc2c1,photoluminescence quantum yield,in C1CCCCC1,0.52
Cc1ccc(-c2c3nc(c(-c4ccc(C)cc4)c4ccc([nH]4)c(-c4ccc(OC(=O)C(C)c5ccc(-c6ccccc6)c(F)c5)cc4)c4nc(c(-c5ccc(C)cc5)c5ccc2[nH]5)C=C4)C=C3)cc1 (centres undefined),photoluminescence quantum yield,in ClCCl,0.131
CC[N+]1(CC)CN2C(C)=CC(C)=C(C(=O)[O-])C2=N1,photoluminescence quantum yield,in CN(C)C=O,0.105
same,photoluminescence quantum yield,in O,0.783
c1ccc(-c2ccc(-c3ccccc3)s2)cc1,photoluminescence quantum yield,in C1CCOC1,0.07
c12c3c4c5c1c1c6c7c2c2c8c3c3c9c4c4c%10c5c5c1c1c6c6c%11c%12c%13c%14c%15c%16c%17c%14c%14c%18c%13c%11c1c1c5c%10c5c(c%14c%10c%17c%11c%13c%16c%14c%16c%15c%12c%12c%16c(c2c7c%126)c2c8c3c(c%13c%142)c2c9c4c5c%10c%112)c%181,photoluminescence quantum yield,in CC1CCCCC1,0.0006
